The target of the assay is T1, human S1P1 receptor (Homo sapiens, UniProt P21453).
T1 construct: expressed in transfected cells; membranes were used
In words: GTP γ35S binding assay, S1P1 receptor activity. The assay is classed as biochemical. The note with it: for % stimulation: S1P1 receptor, agonist-induced stimulation; for EC50: membranes of cells stably expressing the S1P1 receptor, test compounds 0.08 to 5,000 nM. On the procedure:
The S1P1 activity of the compounds according to the invention, were tested using the GTP γ^35S binding assay. The compounds were assessed for their ability to activate or block activation of the human S1P1 receptor in cells stably expressing the S1P1 receptor.
GTP γ^35S binding was measured in the medium containing (mM) HEPES 25, pH 7.4, MgCl2 10, NaCl 100, dithitothreitol 0.5, digitonin 0.003%, 0.2 nM GTP γ^35S, and 5 μg membrane protein in a volume of 150 μl. Test compounds were included in the concentration range from 0.08 to 5,000 nM unless indicated otherwise. Membranes were incubated with 100 μM 5′-adenylylimmidodiphosphate for 30 min, and subsequently with 10 μM GDP for 10 min on ice. Drug solutions and membrane were mixed, and then reactions were initiated by adding GTP γ^35S and continued for 30 min at 25° C. Reaction mixtures were filtered over Whatman GF/B filters under vacuum, and washed three times with 3 mL of ice-cold buffer (HEPES 25, pH7.4, MgCl2 10 and NaCl 100). Filters were dried and mixed with scintillant, and counted for ^35S activity using a β-counter. Agonist-induced GTP γ^35S binding was obtained by subtracting that in the absence of agonist. Binding data were analyzed using a non-linear regression method. In case of antagonist assay, the reaction mixture contained 10 nM S1P in the presence of test antagonist at concentrations ranging from 0.08 to 5000 nM.
Activity potency: S1P1 receptor from GTP γ^35S: nM, (EC50), % stimulation, […]
(GTPγS resists hydrolysis and so accumulates on activated G proteins.)

T1 sequence (P21453 whole entry): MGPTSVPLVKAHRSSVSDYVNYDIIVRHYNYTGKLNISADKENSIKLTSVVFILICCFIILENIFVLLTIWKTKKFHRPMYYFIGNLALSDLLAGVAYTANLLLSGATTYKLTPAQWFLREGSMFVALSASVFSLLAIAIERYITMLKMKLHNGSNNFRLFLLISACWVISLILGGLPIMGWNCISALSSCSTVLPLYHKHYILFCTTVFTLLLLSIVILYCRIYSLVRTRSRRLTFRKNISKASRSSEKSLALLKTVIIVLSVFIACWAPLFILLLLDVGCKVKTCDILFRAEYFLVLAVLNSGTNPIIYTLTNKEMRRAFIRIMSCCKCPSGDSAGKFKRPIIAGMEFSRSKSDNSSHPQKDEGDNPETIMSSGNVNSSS

For orientation: EC50 means the concentration giving half of the maximal effect. Lower therefore signals greater potency. In turn, `c1ccc(Cn2cc(-c3nc(-c4ccc(Cn5ccnc5)cc4)no3)c3ccccc32)cc1` [Compound 6, 1-benzyl-3-{3-[4-(1H-imidazol-1-ylmethyl)phenyl]-1,2,4-oxadiazol-5-yl}-1H-indole] showed a % stimulation of 86% and an EC50 of 1160 nM.

As to `O=C(O)CCCCNCc1ccc(-c2noc(-c3cn(Cc4ccccc4)c4ccccc34)n2)cc1` [Compound 15, 5-({4-[5-(1-benzyl-1H-indol-3-yl)-1,2,4-oxadiazol-3-yl]benzyl}amino)pentanoic acid], the % stimulation is 108% and the midpoint of the response, the EC50, lay at 1010 nM.

Regarding `O=C(O)C1CN(Cc2ccc(-c3noc(-c4cn(Cc5ccccc5)c5ccc(F)cc45)n3)cc2)C1` [Compound 5, 1-{4-[5-(1-benzyl-5-fluoro-1H-indol-3-yl)-1,2,4-oxadiazol-3-yl]benzyl}azetidine-3-carboxylic acid], the % stimulation came to 91% and the midpoint of the response, the EC50, lay at 189 nM.

The compound `COc1ccc2c(c1)c(-c1nc(-c3ccc(CN4CC(C(=O)O)C4)cc3)no1)c(C)n2Cc1ccc(C)c(C)c1` [Compound 3, 1-(4-{5-[1-(3,4-dimethylbenzyl)-5-methoxy-2-methyl-1H-indol-3-yl]-1,2,4-oxadiazol-3-yl}benzyl)azetidine-3-carboxylic acid] registered a % stimulation of 82% and an EC50 of 1560 nM.

With `Cc1ccc(Cn2cc(-c3nc(-c4ccc(CNCCC(=O)O)cc4)no3)c3ccccc32)cc1C` [Compound 16, 3-[(4-{5-[1-(3,4-dimethylbenzyl)-1H-indol-3-yl]-1,2,4-oxadiazol-3-yl}benzyl)amino]propanoic acid], the % stimulation was 81% and it took 1440 nM to reach a half-maximal effect (EC50).

For `Cc1ccc2c(c1)c(-c1nc(-c3ccc(CNCCC(=O)O)cc3)no1)cn2Cc1ccc(C)c(C)c1` [Compound 13, 3-[(4-{5-[1-(3,4-dimethylbenzyl)-5-methyl-1H-indol-3-yl]-1,2,4-oxadiazol-3-yl}benzyl)amino]propanoic acid], the % stimulation was 82% and a half-maximal effect (EC50) was put at 351 nM.

`CNc1ncccc1-c1noc(-c2cn(Cc3ccc(C)c(C)c3)c3ccc(F)cc23)n1` [Compound 11, 3-{5-[1-(3,4-dimethylbenzyl)-5-fluoro-1H-indol-3-yl]-1,2,4-oxadiazol-3-yl}-N-methylpyridin-2-amine] displayed an EC50 of 569 nM.

In turn, `Cc1ccc2c(c1)c(-c1nc(-c3ccc(CN4CC(C(=O)O)C4)cc3)no1)cn2Cc1ccc(C)c(C)c1` [Compound 1, 1-(4-{5-[1-(3,4-dimethylbenzyl)-5-methyl-1H-indol-3-yl]-1,2,4-oxadiazol-3-yl}benzyl)azetidine-3-carboxylic acid] came in with a % stimulation of 92% and an EC50 of 426 nM.

`Cc1ccc(Cn2cc(-c3nc(-c4ccc(CN5CC(C(=O)O)C5)cc4)no3)c3cc(F)ccc32)cc1C` [Compound 2, 1-(4-{5-[1-(3,4-dimethylbenzyl)-5-fluoro-1H-indol-3-yl]-1,2,4-oxadiazol-3-yl}benzyl)azetidine-3-carboxylic acid] displayed a % stimulation of 94% and an EC50 of 737 nM.

Take `O=C(O)CCNCc1ccc(-c2noc(-c3cn(Cc4ccccc4)c4ccc(F)cc34)n2)cc1` [Compound 17, 3-({4-[5-(1-benzyl-5-fluoro-1H-indol-3-yl)-1,2,4-oxadiazol-3-yl]benzyl}amino)propanoic acid]: the % stimulation was determined as 100% and the EC50 turned out to be 129 nM.

`O=C(O)CCNCc1ccc(-c2noc(-c3cn(Cc4ccccc4)c4ccccc34)n2)cc1` [Compound 12, 3-({4-[5-(1-benzyl-1H-indol-3-yl)-1,2,4-oxadiazol-3-yl]benzyl}amino)propanoic acid] gave a 50% effective concentration (EC50) of 394 nM.

With `CNc1ncccc1-c1noc(-c2cn(Cc3ccccc3)c3ccccc23)n1` [Compound 10, 3-[5-(1-benzyl-1H-indol-3-yl)-1,2,4-oxadiazol-3-yl]-N-methylpyridin-2-amine], the % stimulation amounted to 88% and the EC50 amounted to 703 nM.

`Cc1ccc(Cn2c(C)c(-c3nc(-c4ccc(CN5CC(C(=O)O)C5)cc4)no3)c3cc(F)ccc32)cc1C` [Compound 9, 1-(4-{5-[1-(3,4-dimethylbenzyl)-5-fluoro-2-methyl-1H-indol-3-yl]-1,2,4-oxadiazol-3-yl}benzyl)azetidine-3-carboxylic acid]: the % stimulation came out at 85% and the concentration for a half-maximal effect (EC50) is 1000 nM.

Compound `Cc1ccc(Cn2cc(-c3nc(-c4ccc(CN5CC(C(=O)O)C5)cc4)no3)c3ccccc32)cc1C` [Compound 4, 1-(4-{5-[1-(3,4-dimethylbenzyl)-1H-indol-3-yl]-1,2,4-oxadiazol-3-yl}benzyl)azetidine-3-carboxylic acid] yielded a % stimulation of 92% and an EC50 of 1020 nM.

With `Cc1ccc(Cn2cc(-c3nc(-c4ccc(CNCCC(=O)O)cc4)no3)c3cc(F)ccc32)cc1C` [Compound 14, 3-[(4-{5-[1-(3,4-dimethylbenzyl)-5-fluoro-1H-indol-3-yl]-1,2,4-oxadiazol-3-yl}benzyl)amino]propanoic acid], the % stimulation is 93% and the response was half-maximal at 1490 nM (EC50).

On to `O=C(O)C1CN(Cc2ccc(-c3noc(-c4cn(Cc5ccccc5)c5ccccc45)n3)cc2)C1` [Compound 8, 1-{4-[5-(1-benzyl-1H-indol-3-yl)-1,2,4-oxadiazol-3-yl]benzyl}azetidine-3-carboxylic acid], for which the % stimulation was 66% and the response was half-maximal at 494 nM (EC50).

(Values after US8530462B2, “Indole modulators of S1P receptors” (Allergan, Inc., priority 2010, dated 2013).)
